Assay [1] has as its system Aggrecanase-mediated aggrecan cleavage in human OA cartilage explants. Kind of assay: Human osteoarthritic cartilage explant efficacy study (BC3 western analysis). Type of assay: cell-based. The text has this: Human OA Cartilage Explant Culture: Discarded tissues from consented knee replacement patients were obtained from New England Baptist Hospital (Brookline, Mass.) in sterile phosphate buffered saline (PBS) after about 2-4 hrs post surgery. Cartilage slices were harvested from the knee specimens and washed several times in PBS. These cartilage slices were cut into appropriate pieces (6-8 mm) and rinsed in PBS and then in media and further cultured for additional days as cartilage explants. The medium consisted of Dulbecco's Modified Eagle's medium (DMEM, JRH Biosciences, Lenexa, Kans.), 50 μg/ml ascorbic acid (Wako, Osaka, Japan), 10 mM HEPES, pH 7.0 (Mediatech, Herndon, Va.), 2 mM L-glutamine (Mediatech), 100 U/ml antibiotic-antimycotic solution (Mediatech).
Test compounds: The test compounds are described in Examples 8OO, 8NNNNNNN, and 8WWWWWWW. Stock solutions of the compounds were prepared at 1 mg/ml in DMSO, aliquoted and stored at −20° C. Working solutions of the compounds were made in DMSO and added to the culture for efficacy studies.
Efficacy study: Cartilage explants were cultured for 2-3 days in DMEM medium in a 37° C. and 5% CO2 environment to equilibrate the tissue. Explants were weighed (˜250 mg) and placed in wells of a 24-well culture dish in 1 ml of medium and 3 replicates per treatment group. For the efficacy study, cartilage explants were cultured for 6 days in the presence or absence of various concentrations of the test compound. The media was replaced on day 3 and the experiment was terminated on day 6. Total aggrecan content of conditioned media was measured by a colorimetric assay with DMMB (Farndale, R W et al., Biochim Biophys Acta. 1986, 883, 173-177).
Western analysis: Aggrecan fragments in conditioned medium were analyzed by western analysis using neoepitope antibody, BC-3 designed to recognize the Aggrecanase-generated N-terminal interglobular neoepitope ^374ARGS. Equal cartilage weight equivalent conditioned media from each replicate well per treatment group was pooled and digested with Chondroitinase ABC (Sigma, St Louis, Mo.), Keratinase I (Seikagaku America, Falmouth, Mass.) and Keratinase II (Seikagaku America, Falmouth, Mass.) for 2 h at 37° C. Samples were concentrated by YM-10 centrifugal filter device (Millipore Corp., Bedford, Mass.), lyophilized and reconstituted with equal volume of water. Samples were separated under reducing conditions on 4-12% gradient Tris-glycine gels (Invitrogen, Carlsbad, Calif.). Proteins from the gels were transferred to nitrocellulose membranes. Immunoblots were probed using Mab BC-3 (Abcam, Cambridge, Mass.). Incubation with primary and alkaline-phosphatase-conjugated secondary goat anti-mouse IgG (Promega Corp., Madison, Wis.) was performed overnight at 4° C. and at room temperature for 1 h, respectively. The immunoblots were incubated with NBT/BCIP substrate (Promega Corp., Madison, Wis.) at room temperature to achieve optimum color development. The aggrecan fragments containing the ARGS neoepitope were quantitated by densitometry analysis and the percentage inhibition of aggrecan degradation by test compounds was determined.

Assay [2] addresses T1, purified recombinant human Aggrecanase-1 (rAgg1) (Homo sapiens, UniProt O75173).
T1 sequence (O75173 213-837): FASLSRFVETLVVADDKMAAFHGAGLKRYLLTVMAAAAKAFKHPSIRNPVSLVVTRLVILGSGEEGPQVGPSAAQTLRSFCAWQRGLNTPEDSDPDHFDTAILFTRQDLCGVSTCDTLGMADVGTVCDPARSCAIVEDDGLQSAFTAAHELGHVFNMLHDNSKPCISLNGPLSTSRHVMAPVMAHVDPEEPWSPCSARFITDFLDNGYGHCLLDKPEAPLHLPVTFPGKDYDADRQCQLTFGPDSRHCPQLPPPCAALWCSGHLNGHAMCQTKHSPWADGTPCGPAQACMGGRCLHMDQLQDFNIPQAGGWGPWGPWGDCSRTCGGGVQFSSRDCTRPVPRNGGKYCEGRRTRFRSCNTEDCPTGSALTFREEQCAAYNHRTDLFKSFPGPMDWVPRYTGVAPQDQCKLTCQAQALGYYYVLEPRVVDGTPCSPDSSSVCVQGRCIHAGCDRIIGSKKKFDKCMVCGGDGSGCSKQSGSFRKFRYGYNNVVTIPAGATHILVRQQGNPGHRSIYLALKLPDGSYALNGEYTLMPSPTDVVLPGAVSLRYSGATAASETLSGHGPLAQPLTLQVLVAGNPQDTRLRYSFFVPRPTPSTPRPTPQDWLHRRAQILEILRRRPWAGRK
The assay can be described thus: In vitro fluorescence screen for Aggrecanase-1 inhibitors. Type of assay: biochemical. Particulars: Table 3.

A further assay addresses T2, recombinant human MMP-2 (Homo sapiens, UniProt P08253).
T2 sequence (P08253 110-660): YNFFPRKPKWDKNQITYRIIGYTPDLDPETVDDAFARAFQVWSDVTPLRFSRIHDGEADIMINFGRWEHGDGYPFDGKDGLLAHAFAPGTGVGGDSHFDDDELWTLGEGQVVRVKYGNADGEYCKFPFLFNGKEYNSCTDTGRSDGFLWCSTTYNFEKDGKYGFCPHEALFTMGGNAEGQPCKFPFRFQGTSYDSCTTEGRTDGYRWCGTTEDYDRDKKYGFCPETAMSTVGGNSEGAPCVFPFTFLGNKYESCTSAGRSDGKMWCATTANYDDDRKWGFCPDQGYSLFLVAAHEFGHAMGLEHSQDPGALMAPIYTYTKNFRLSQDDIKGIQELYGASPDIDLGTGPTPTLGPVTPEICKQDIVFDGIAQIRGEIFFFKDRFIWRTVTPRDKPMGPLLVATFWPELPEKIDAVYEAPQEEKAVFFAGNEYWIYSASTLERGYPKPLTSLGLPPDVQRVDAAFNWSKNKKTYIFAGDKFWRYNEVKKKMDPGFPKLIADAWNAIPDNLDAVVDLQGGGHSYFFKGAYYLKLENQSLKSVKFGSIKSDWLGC
Kind of assay: In vitro fluorescence assay of MMP-2 activity.

Assay [3] concerns the target T3, purified recombinant human Aggrecanase-2 (Ag2t-Phe628-Strep) (Homo sapiens, UniProt Q9UNA0).
T3 construct: the form used is denoted as Ag2t-Phe628-Strep (MW=41,737)
T3 sequence (Q9UNA0 262-628): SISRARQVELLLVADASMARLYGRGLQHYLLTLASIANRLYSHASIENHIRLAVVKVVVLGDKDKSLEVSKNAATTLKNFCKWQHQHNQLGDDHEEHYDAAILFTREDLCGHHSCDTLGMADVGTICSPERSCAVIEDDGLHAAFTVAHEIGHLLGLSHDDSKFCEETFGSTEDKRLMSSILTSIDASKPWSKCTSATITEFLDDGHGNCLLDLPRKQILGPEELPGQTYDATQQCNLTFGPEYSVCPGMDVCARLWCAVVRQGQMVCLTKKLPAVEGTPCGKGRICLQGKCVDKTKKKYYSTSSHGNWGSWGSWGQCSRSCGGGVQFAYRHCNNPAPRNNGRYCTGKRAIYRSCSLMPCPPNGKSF
Kind of assay: In vitro fluorescence screen for Aggrecanase-2 inhibitors. Type of assay: biochemical. Particulars: Table 3.

A further assay has as its target MMP-12 (Homo sapiens, UniProt P39900). Kind of assay: MMP-12 of Table 3. Type of assay: biochemical. Particulars: unit inferred.
The target in another assay is MMP-8 (Homo sapiens, UniProt P22894). The assay can be described thus: MMP-8 of Table 3. Type of assay: biochemical. Particulars: unit inferred.
Chain of MMP-8 (P22894 101-467, species assumed): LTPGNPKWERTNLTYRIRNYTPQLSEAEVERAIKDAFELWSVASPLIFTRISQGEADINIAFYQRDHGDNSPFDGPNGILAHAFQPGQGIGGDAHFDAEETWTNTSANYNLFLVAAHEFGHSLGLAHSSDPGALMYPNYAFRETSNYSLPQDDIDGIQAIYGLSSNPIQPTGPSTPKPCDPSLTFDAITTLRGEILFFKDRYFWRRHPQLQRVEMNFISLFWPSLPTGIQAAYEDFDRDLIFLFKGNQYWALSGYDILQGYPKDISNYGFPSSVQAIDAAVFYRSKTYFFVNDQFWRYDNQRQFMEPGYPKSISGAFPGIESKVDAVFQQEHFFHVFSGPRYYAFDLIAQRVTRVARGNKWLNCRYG

The values that follow come from US7998965B2, “Glutamate aggrecanase inhibitors” (Wyeth LLC, priority 2005, dated 2011).

Chain of MMP-12 (P39900 106-470): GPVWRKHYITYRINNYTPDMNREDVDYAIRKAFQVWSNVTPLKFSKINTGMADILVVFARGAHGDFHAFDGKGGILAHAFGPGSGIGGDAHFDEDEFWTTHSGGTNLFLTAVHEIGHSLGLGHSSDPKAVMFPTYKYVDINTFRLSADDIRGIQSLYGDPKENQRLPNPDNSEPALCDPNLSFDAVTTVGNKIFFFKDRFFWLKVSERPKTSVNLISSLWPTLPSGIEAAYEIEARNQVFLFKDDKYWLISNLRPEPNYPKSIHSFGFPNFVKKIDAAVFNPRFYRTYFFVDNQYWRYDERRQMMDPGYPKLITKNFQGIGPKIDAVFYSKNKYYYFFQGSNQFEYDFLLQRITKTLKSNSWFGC
Description for recombinant human MMP-2: A continuous assay was used in which the substrate is a synthetic peptide containing a fluorescent group (7-methoxycoumarin; Mca), which is quenched by energy transfer to a 2,4-dinitrophenyl group. […] The source of enzyme in the assay was the recombinant human MMP-2 (66 kDa; Oncogene Research Products (catalog number PF023 from Calbiochem)). The substrate used was the peptide Mca-PQGL-(3-[2,4-dinitrophenyl]-L-2,3-diaminopropionyl)-AR-OH. The assay buffer consisted of 50 mM Hepes (pH 7.4), 100 mM NaCl, 5 mM CaCl2, and 0.005% Brij-35. […] The plates were then incubated at 30° C. for 15 minutes. The enzymatic reactions were initiated by adding the substrate to a final concentration of 20 μM, and mixing 10 times with a pipette. The final DMSO concentration in the assay was 6.0%.
Plots of the inhibitor concentration vs. the percent inhibition were fit to the following equation: y=(a−d)/[^1+(x/c)^b]+d, a general sigmoidal curve with Hill slope, a to d. x is the inhibitor concentration under test. y is the percent inhibition. a is the limiting response as x approaches zero. As x increases without bound, y tends toward its limit d. c is the inflection point (IC50) for the curve. That is, y is halfway between the lower and upper asymptotes when x=c. b is the slope factor or Hill coefficient.

With `CC(C)(Cc1ccc(F)cc1)NC(=O)[C@H](CCC(=O)O)NC(=O)c1ccc(-c2cccs2)cc1` [Example 8NNNNNNN, N-[2-(4-fluorophenyl)-1,1-dimethylethyl]-N^2-[4-(2-thienyl)benzoyl]-L-α-glutamine], the EC50 in assay [1] (144 h, human OA cartilage explants, 6 days, BC3 analysis, read-out: EC50 (inhibition of aggrecanase generated aggrecan fragments)) is below 0.04 µg/mL. Also, the inhibition at 0.04 µg/mL in assay [1] (Homo sapiens, 0.04 ug/ml, average of 4 donors, read-out: % inhibition (BC3 analysis)) stood at 70.2%. Further, the inhibition at 0.08 µg/mL in assay [1] (Homo sapiens, 0.08 ug/ml, average of 4 donors, read-out: % inhibition (BC3 analysis)) turned out to be 84.5%. Also, in assay [1] (Homo sapiens, 0.15 ug/ml, average of 4 donors, read-out: % inhibition (BC3 analysis)), the inhibition at 0.15 µg/mL came out at 66.7%. Moreover, the inhibition at 0.3 µg/mL in assay [1] (Homo sapiens, 0.3 ug/ml, average of 4 donors, read-out: % inhibition (BC3 analysis)) came to 73.1%. For the same molecule, in assay [1] (Homo sapiens, 0.6 ug/ml, average of 4 donors, read-out: % inhibition (BC3 analysis)), the inhibition at 0.6 µg/mL worked out at 98.9%. The inhibition at 1.25 µg/mL in assay [1] (Homo sapiens, 1.25 ug/ml, average of 4 donors, read-out: % inhibition (BC3 analysis)) worked out at 99.4%. Moreover, the inhibition at 2.5 µg/mL in assay [1] (Homo sapiens, 2.5 ug/ml, average of 4 donors) amounted to 98.7%. The inhibition at 5 µg/mL in assay [1] (Homo sapiens, 5 ug/ml, average of 4 donors) was 100%. In addition, the inhibition at 10 µg/mL in assay [1] (Homo sapiens, 10 ug/ml, average of 4 donors) turned out to be 101%. The IC50 in assay [2] (read-out: Agg1 IC50) is below 30 nM; on recombinant human MMP-2, 2150 nM; in assay [3] (read-out: Agg 2 IC50), below 30 nM; at MMP-12 it was 680 nM; at MMP-8 it was 1210 nM. The Ki was below 3 nM in assay [2] (read-out: Ki Agg1) and 37 nM in assay [3] (read-out: Ki Agg2).
